Patent US20060069132A1, “Azolecarboxamide herbicides” (priority 2004, published 2006)

What was measured:
giant foxtail [1] = experiment: Test A pre-/postemergence herbicide test; type: in vivo, Setaria faberi
How it was run: (§1)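 Seeds sown in sandy loam received a preemergence directed soil spray of compound in non-phytotoxic solvent with surfactant; postemergence plants (2–10 cm, one- to two-leaf stage) were sprayed to runoff at the same time. After ~10 days in greenhouse, injury was rated visually versus untreated controls (0 = no effect, 100 = complete control).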

wild oat = experiment: Test B postemergence herbicide test; type: in vivo, Avena fatua; details: postemergence, visual rating, scale 0 (no effect) to 100 (complete control)
How it was run: (§2)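 Greenhouse test; postemergence application to plants at 1–4 leaves (2–18 cm); paddy species at 2 leaves; evaluated visually vs controls at 13–15 days; scale 0–100 (100 = complete control).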

giant foxtail [2] = experiment: Test B pre-/postemergence herbicide test; type: in vivo, Setaria faberi; details: for Foxtail, Giant plant response rating: postemergence, visual rating, scale 0 (no effect) to 100 (complete control)
How it was run: (§3)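 Flooded paddy rice and barnyardgrass were treated at the 2-leaf stage; upland plantings received compound either on sown seed or on 1- to 4-leaf seedlings. All were kept 13–15 days in a greenhouse and scored visually, 0–100, relative to untreated plants.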

lambsquarters = experiment: Test B pre-/postemergence herbicide test; type: in vivo, Chenopodium album; details: for Lambsquarters plant response rating: postemergence, visual rating, scale 0 (no effect) to 100 (complete control)
How it was run: as §3

wheat = experiment: Test B postemergence herbicide test; type: in vivo, Triticum aestivum; design: key to Wheat plant response rating: 0 = no effect, 100 = complete control; details: postemergence, visual rating, scale 0 (no effect) to 100 (complete control)
How it was run: as §2

barnyardgrass [3] = experiment: Test B pre-/postemergence herbicide test; type: in vivo, Echinochloa crus-galli; details: for Barnyardgrass plant response rating: postemergence, visual rating, scale 0 (no effect) to 100 (complete control)
How it was run: (§4)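 Greenhouse pot assay with simultaneous preemergence (treated seed) and postemergence (2–18 cm seedlings) applications of surfactant-containing, non-phytotoxic solvent formulations. Response scored visually 13–15 days later on a 0–100 scale, 100 meaning complete control.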

redroot pigweed = experiment: Test A pre-/postemergence herbicide test; type: in vivo, Amaranthus retroflexus
How it was run: as §1

large crabgrass [4] = experiment: Test A pre-/postemergence herbicide test; type: in vivo, Digitaria sanguinalis
How it was run: as §1

pigweed = experiment: Test B pre-/postemergence herbicide test; type: in vivo, Amaranthus retroflexus; details: for Pigweed plant response rating: postemergence, visual rating, scale 0 (no effect) to 100 (complete control)
How it was run: as §3

morningglory [5] = experiment: Test B pre-/postemergence herbicide test; type: in vivo, Ipomoea coccinea; details: for Morningglory plant response rating: postemergence, visual rating, scale 0 (no effect) to 100 (complete control)
How it was run: as §4

ducksalad = experiment: Test B flooded paddy test; type: in vivo, Heteranthera limosa; details: 1000 g ai/ha, visual rating, scale 0 to 100 (0 no effect, 100 complete control), 13 to 15 days
How it was run: as §2

morningglory [6] = experiment: Test A pre-/postemergence herbicide test; type: in vivo, Ipomoea spp.
How it was run: as §1

rice [7] = experiment: Test B pre-/postemergence herbicide test; type: in vivo, Oryza sativa; details: preemergence
How it was run: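 Evaluation is visual, comparing treated with control plants on a scale where 0 means no effect and 100 means full control. Treatments were preemergence, or postemergence on seedlings 2–18 cm tall, and held 13–15 days in the greenhouse.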

rice [8] = experiment: Test B flooded paddy test; type: in vivo, Oryza sativa; details: 1000 g ai/ha, visual rating, scale 0 to 100 (0 no effect, 100 complete control), 13 to 15 days
How it was run: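 After treating 2-leaf paddy plants or 2–18 cm postemergence plants (1 to 4 leaves) with formulated chemical, researchers kept them in a greenhouse for 13–15 days. Effects were judged visually versus controls: 0 indicates none, 100 total control.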

barnyardgrass [9] = experiment: Test B flooded paddy test; type: in vivo, Echinochloa crus-galli; details: 1000 g ai/ha, visual rating, scale 0 to 100 (0 no effect, 100 complete control), 13 to 15 days
How it was run: as §2

corn = experiment: Test B pre-/postemergence herbicide test; type: in vivo, Zea mays; details: for Corn plant response rating: postemergence, visual rating, scale 0 (no effect) to 100 (complete control)
How it was run: as §3

blackgrass = experiment: Test B postemergence herbicide test; type: in vivo, Alopecurus myosuroides; details: postemergence, visual rating, scale 0 (no effect) to 100 (complete control)
How it was run: as §2

cocklebur = experiment: Test B pre-/postemergence herbicide test; type: in vivo, Xanthium strumarium; details: for Cocklebur plant response rating: postemergence, visual rating, scale 0 (no effect) to 100 (complete control)
How it was run: as §4

barnyardgrass [10] = experiment: Test A pre-/postemergence herbicide test; type: in vivo, Echinochloa crus-galli
How it was run: as §1

Surinam grass = experiment: Test B pre-/postemergence herbicide test; type: in vivo, Urochloa decumbens; details: for Surinam Grass plant response rating: postemergence, visual rating, scale 0 (no effect) to 100 (complete control)
How it was run: as §3

velvetleaf [11] = experiment: Test B pre-/postemergence herbicide test; type: in vivo, Abutilon theophrasti; details: for Velvetleaf plant response rating: postemergence, visual rating, scale 0 (no effect) to 100 (complete control)
How it was run: as §3

velvetleaf [12] = experiment: Test A pre-/postemergence herbicide test; type: in vivo, Abutilon theophrasti
How it was run: as §1

[13] = tested on: small flower umbrella sedge; experiment: Test B flooded paddy test; type: in vivo, Cyperus difformis; details: 1000 g ai/ha, visual rating, scale 0 to 100 (0 no effect, 100 complete control), 13 to 15 days
How it was run: as §2

large crabgrass [14] = experiment: Test B pre-/postemergence herbicide test; type: in vivo, Digitaria sanguinalis; details: for Crabgrass, Large plant response rating: postemergence, visual rating, scale 0 (no effect) to 100 (complete control)
How it was run: as §3

[15] = Postemergence, 500 g ai/ha, 0 to 100 scale, 0 no effect, 100 complete control
[16] = Postemergence, 2000 g ai/ha, 0 to 100 scale, 0 no effect, 100 complete control
[17] = Preemergence, 2000 g ai/ha, visual rating, 0 to 100 scale (0 no effect, 100 complete control)
[18] = preemergence, 500 g ai/ha, visual injury, 0 to 100 scale (0 no effect, 100 complete control)
[19] = 125 g ai/ha, 0 = no effect, 100 = complete control, preemergence
[20] = 500 g ai/ha, visual rating 0-100, 0 no effect, 100 complete control, preemergence

## COC(=O)c1cccc(NC(=O)c2sc(C(C)(C)C)nc2C)c1 [Compound 197]
Giant foxtail [1]; [15]
  Foxtail, Giant plant response rating: 0
Giant foxtail [1]; [16]
  Plant response rating, Foxtail, Giant: 5
Giant foxtail [1]; [17]
  Foxtail, Giant plant response rating: 0
Giant foxtail [1]; [18]
  Foxtail, Giant plant response rating: 0
Wild oat; 125 g ai/ha
  Oat, Wild plant response rating: 10
Wild oat; 500 g ai/ha
  Oat, Wild plant response rating: 30
Giant foxtail [2]; [19]
  Foxtail, Giant plant response rating (0 to 100 scale): 0
Giant foxtail [2]; [20]
  Plant response rating, Foxtail, Giant: 0
Giant foxtail [2]; 125 g ai/ha
  Foxtail, Giant plant response rating: 0
Giant foxtail [2]; 500 g ai/ha
  Foxtail, Giant plant response rating: 0
lambsquarters; [19]
  Lambsquarters plant response rating (0 to 100 scale): 0
lambsquarters; [20]
  Plant response rating, Lambsquarters: 0
lambsquarters; 125 g ai/ha
  Lambsquarters plant response rating: 0
lambsquarters; 500 g ai/ha
  Lambsquarters plant response rating: 0
wheat; 125 g ai/ha
  Wheat plant response rating: 0
wheat; 500 g ai/ha
  Wheat plant response rating: 10
Barnyardgrass [3]; [19]
  Barnyardgrass plant response rating (0 to 100 scale): 0
Barnyardgrass [3]; [20]
  Plant response rating, Barnyardgrass: 10
Barnyardgrass [3]; 125 g ai/ha
  Barnyardgrass plant response rating: 0
Barnyardgrass [3]; 500 g ai/ha
  Barnyardgrass plant response rating: 10
Redroot pigweed; [15]
  Pigweed plant response rating: 0
Redroot pigweed; [16]
  Plant response rating, Pigweed: 5
Redroot pigweed; [17]
  Pigweed plant response rating: 0
Redroot pigweed; [18]
  Pigweed plant response rating: 0
Large crabgrass [4]; [15]
  Crabgrass, Large plant response rating: 5
Large crabgrass [4]; [16]
  Plant response rating, Crabgrass, Large: 10
Large crabgrass [4]; [17]
  Crabgrass, Large plant response rating: 0
Large crabgrass [4]; [18]
  Crabgrass, Large plant response rating: 0
pigweed; [19]
  Pigweed plant response rating (0 to 100 scale): 0
pigweed; [20]
  Plant response rating, Pigweed: 0
pigweed; 125 g ai/ha
  Pigweed plant response rating: 0
pigweed; 500 g ai/ha
  Pigweed plant response rating: 10
Morningglory [5]; [19]
  Morningglory plant response rating (0 to 100 scale): 0
Morningglory [5]; [20]
  Plant response rating, Morningglory: 0
Morningglory [5]; 125 g ai/ha
  Morningglory plant response rating: 0
Morningglory [5]; 500 g ai/ha
  Morningglory plant response rating: 0
ducksalad
  Ducksalad plant response rating: 0
Morningglory [6]; [15]
  Morningglory plant response rating: 0
Morningglory [6]; [16]
  Plant response rating, Morningglory: 0
Morningglory [6]; [17]
  Morningglory plant response rating: 5
Morningglory [6]; [18]
  Morningglory plant response rating: 0
Rice [7]; 125 g ai/ha, 0 = no effect, 100 = complete control
  Rice plant response rating (0 to 100 scale): 0
Rice [7]; 500 g ai/ha, visual rating 0-100, 0 no effect, 100 complete control
  Plant response rating, Rice: 0
Rice [8]
  Rice plant response rating: 0
Barnyardgrass [9]
  Barnyardgrass plant response rating: 0
corn; [19]
  Corn plant response rating (0 to 100 scale): 0
corn; [20]
  Plant response rating, Corn: 0
corn; 125 g ai/ha
  Corn plant response rating: 10
corn; 500 g ai/ha
  Corn plant response rating: 20
blackgrass; 125 g ai/ha
  Blackgrass plant response rating: 0
blackgrass; 500 g ai/ha
  Blackgrass plant response rating: 0
cocklebur; [19]
  Cocklebur plant response rating (0 to 100 scale): 0
cocklebur; [20]
  Plant response rating, Cocklebur: 0
cocklebur; 125 g ai/ha
  Cocklebur plant response rating: 0
cocklebur; 500 g ai/ha
  Cocklebur plant response rating: 10
Barnyardgrass [10]; [15]
  Barnyardgrass plant response rating: 10
Barnyardgrass [10]; [16]
  Plant response rating, Barnyardgrass: 0
Barnyardgrass [10]; [17]
  Barnyardgrass plant response rating: 0
Barnyardgrass [10]; [18]
  Barnyardgrass plant response rating: 0
Surinam grass; [19]
  Surinam Grass plant response rating (0 to 100 scale): 0
Surinam grass; [20]
  Plant response rating, Surinam Grass: 20
Surinam grass; 125 g ai/ha
  Surinam Grass plant response rating: 10
Surinam grass; 500 g ai/ha
  Surinam Grass plant response rating: 20
Velvetleaf [11]; [19]
  Velvetleaf plant response rating (0 to 100 scale): 0
Velvetleaf [11]; [20]
  Plant response rating, Velvetleaf: 0
Velvetleaf [11]; 125 g ai/ha
  Velvetleaf plant response rating: 0
Velvetleaf [11]; 500 g ai/ha
  Velvetleaf plant response rating: 20
Velvetleaf [12]; [15]
  Velvetleaf plant response rating: 5
Velvetleaf [12]; [16]
  Plant response rating, Velvetleaf: 5
Velvetleaf [12]; [17]
  Velvetleaf plant response rating: 10
Velvetleaf [12]; [18]
  Velvetleaf plant response rating: 0
[13]
  Sedge, Umbrella plant response rating: 0
Large crabgrass [14]; [19]
  Crabgrass, Large plant response rating (0 to 100 scale): 0
Large crabgrass [14]; [20]
  Plant response rating, Crabgrass, Large: 0
Large crabgrass [14]; 125 g ai/ha
  Crabgrass, Large plant response rating: 0
Large crabgrass [14]; 500 g ai/ha
  Crabgrass, Large plant response rating: 0
